27 molecules from patent publication US9326973B2, “Hepatitis C virus inhibitors” (priority 2012, dated 2016) can be followed below.

The assay deals with HCV replicon, genotype-1a variant with glutamine 30 changed to glutamate in the NS5A protein. The assay can be described thus: microbe, parasite or virus in culture. Type of assay: cell-based, HCV genotype 1a. The note with it: HCV replicon genotype 1a Q30E (Q→E) variant; test compound titrated with an NS5A-targeting compound (BMS-790052 fixed at 200 nM); ranking of synergist activity. Summed up:
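Synergy was assessed by combining several fixed amounts of an NS5A-targeting compound with a titration of the second compound of interest.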
On the technique in general: A replicon is a self-replicating genome or part of one, used to study replication in cells.

The structures appear in SMILES notation.

On to `COC(C)(C(=O)N[C@H](c1nc(-c2ccc(-c3ccc(-c4c[nH]c([C@@H](NC(=O)C(C)(OC)C5(O)CCC(F)(F)CC5)C(C)(C)C)n4)cc3)cc2)c[nH]1)C(C)(C)C)C1(O)CCC(F)(F)CC1` (stereo partly drawn) [Compound P-156], for which the “Fold-Synergistic 1a (Q30E)” value is reported as above 100 fold. Turning to `CC(C)(C)[C@H](NC(=O)C(C)(C)[C@]1(O)C[C@H]2CC(F)(F)C[C@H]2C1)c1nc(-c2ccc(-c3ccc(-c4c[nH]c([C@@H](NC(=O)C(C)(C)[C@]5(O)C[C@H]6CC(F)(F)C[C@H]6C5)C(C)(C)C)n4)cc3)cc2)c[nH]1` [Compound P-157], the “Fold-Synergistic 1a (Q30E)” value was above 100 fold. For `CC(C)(C)[C@H](NC(=O)C(C)(C)C1(O)CCOCC1)c1nc(-c2ccc(-c3ccc(-c4c[nH]c([C@@H](NC(=O)C(C)(C)C5(O)CCOCC5)C(C)(C)C)n4)cc3)cc2)c[nH]1` [Compound P-158], the “Fold-Synergistic 1a (Q30E)” value is reported as above 100 fold. For `CC(C)(C)[C@H](NC(=O)C(F)(F)C1(O)CCCCC1)c1nc(-c2ccc(-c3ccc(-c4c[nH]c([C@@H](NC(=O)C(F)(F)C5(O)CCCCC5)C(C)(C)C)n4)cc3)cc2)c[nH]1` [Compound P-159], the “Fold-Synergistic 1a (Q30E)” value was above 100 fold. Take `CC(C)(C)[C@H](NC(=O)C(C)(C)C1(O)CCCCC1)c1nc(-c2ccc(-c3ccc(-c4c[nH]c([C@@H](NC(=O)C(C)(C)C5(O)CCCCC5)C(C)(C)C)n4)cc3)cc2)c[nH]1` [Compound P-160]: the “Fold-Synergistic 1a (Q30E)” value is on record as above 100 fold.

`CC(C)(C)[C@H](NC(=O)C1(CF)CCCO1)c1nc(-c2ccc(-c3ccc(-c4c[nH]c([C@@H](NC(=O)C5(CF)CCCO5)C(C)(C)C)n4)cc3)cc2)c[nH]1` (stereo partly drawn) [Compound P-161]: the “Fold-Synergistic 1a (Q30E)” value is above 100 fold.

Turning to `CC(C)(C)[C@H](NC(=O)C1(C)OCCCC1(F)F)c1nc(-c2ccc(-c3ccc(-c4c[nH]c([C@@H](NC(=O)C5(C)OCCCC5(F)F)C(C)(C)C)n4)cc3)cc2)c[nH]1` (stereo partly drawn) [Compound P-162], the “Fold-Synergistic 1a (Q30E)” value was above 100 fold. For `CC(C)(C)[C@H](NC(=O)C(F)(F)C1(O)CCOCC1)c1nc(-c2ccc(-c3ccc(-c4c[nH]c([C@@H](NC(=O)C(F)(F)C5(O)CCOCC5)C(C)(C)C)n4)cc3)cc2)c[nH]1` [Compound P-163], the “Fold-Synergistic 1a (Q30E)” value is given as above 100 fold. Regarding `CC(C)(C)[C@H](NC(=O)C(F)(F)C1(O)CCCC1)c1nc(-c2ccc(-c3ccc(-c4c[nH]c([C@@H](NC(=O)C(F)(F)C5(O)CCCC5)C(C)(C)C)n4)cc3)cc2)c[nH]1` [Compound P-164], the “Fold-Synergistic 1a (Q30E)” value is above 100 fold. Then `CC(C)(C)[C@H](NC(=O)C(F)(F)C1(O)CCC1)c1nc(-c2ccc(-c3ccc(-c4c[nH]c([C@@H](NC(=O)C(F)(F)C5(O)CCC5)C(C)(C)C)n4)cc3)cc2)c[nH]1` [Compound P-165], with above 100 fold; and `CC(C)(C)[C@H](NC(=O)C(F)(F)C1CCCCO1)c1nc(-c2ccc(-c3ccc(-c4c[nH]c([C@@H](NC(=O)C(F)(F)C5CCCCO5)C(C)(C)C)n4)cc3)cc2)c[nH]1` (stereo partly drawn) [Compound P-166], with above 100 fold. Then `COC1(C(F)(F)C(=O)N[C@H](c2nc(-c3ccc(-c4ccc(-c5c[nH]c([C@@H](NC(=O)C(F)(F)C6(OC)CCCCC6)C(C)(C)C)n5)cc4)cc3)c[nH]2)C(C)(C)C)CCCCC1` [Compound P-167], with above 100 fold. For `CC(C)(C)[C@H](NC(=O)C(F)(F)C(O)c1ccccc1)c1nc(-c2ccc(-c3ccc(-c4c[nH]c([C@@H](NC(=O)C(F)(F)C(O)c5ccccc5)C(C)(C)C)n4)cc3)cc2)c[nH]1` (stereo partly drawn) [Compound P-168], the “Fold-Synergistic 1a (Q30E)” value was above 100 fold. Consider `CC(C)(C)[C@H](NC(=O)C(O)(C1CC1)C1CC1)c1nc(-c2ccc(-c3ccc(-c4c[nH]c([C@@H](NC(=O)C(O)(C5CC5)C5CC5)C(C)(C)C)n4)cc3)cc2)c[nH]1` [Compound P-169], for which the “Fold-Synergistic 1a (Q30E)” value was above 100 fold. Next, `CC(C)(C)[C@H](NC(=O)[C@@]12CC[C@@](C)(C(=O)O1)C2(C)C)c1nc(-c2ccc(-c3ccc(-c4c[nH]c([C@@H](NC(=O)[C@@]56CC[C@@](C)(C(=O)O5)C6(C)C)C(C)(C)C)n4)cc3)cc2)c[nH]1` [Compound P-170]: above 100 fold; `CC(C)(C)[C@H](NC(=O)[C@@H]1CCC[C@@H]1O)c1nc(-c2ccc(-c3ccc(-c4c[nH]c([C@@H](NC(=O)[C@@H]5CCC[C@@H]5O)C(C)(C)C)n4)cc3)cc2)c[nH]1` [Compound P-171]: above 100 fold; `CC(C)(C)[C@H](NC(=O)C(F)(F)Sc1ccccc1)c1nc(-c2ccc(-c3ccc(-c4c[nH]c([C@@H](NC(=O)C(F)(F)Sc5ccccc5)C(C)(C)C)n4)cc3)cc2)c[nH]1` [Compound P-172]: above 100 fold. Regarding `CC(C)(C)[C@H](NC(=O)C1CCCCS1)c1nc(-c2ccc(-c3ccc(-c4c[nH]c([C@@H](NC(=O)C5CCCCS5)C(C)(C)C)n4)cc3)cc2)c[nH]1` (stereo partly drawn) [Compound P-173], the “Fold-Synergistic 1a (Q30E)” value was above 100 fold.

With `CC(C)(NC1CCCCC1)C(=O)N[C@H](c1nc(-c2ccc(-c3ccc(-c4c[nH]c([C@@H](NC(=O)C(C)(C)NC5CCCCC5)C(C)(C)C)n4)cc3)cc2)c[nH]1)C(C)(C)C` [Compound P-174], the “Fold-Synergistic 1a (Q30E)” value is above 100 fold.

On to `CC(C)(C)NC(C)(C)C(=O)N[C@H](c1nc(-c2ccc(-c3ccc(-c4c[nH]c([C@@H](NC(=O)C(C)(C)NC(C)(C)C)C(C)(C)C)n4)cc3)cc2)c[nH]1)C(C)(C)C` [Compound P-175], for which the “Fold-Synergistic 1a (Q30E)” value was above 100 fold. Regarding `CC(C)(C)[C@H](NC(=O)[C@@]1(C)CCCCO1)c1nc(-c2ccc(-c3ccc(-c4c[nH]c([C@@H](NC(=O)[C@@]5(C)CCCCO5)C(C)(C)C)n4)cc3)cc2)c[nH]1` [Compound P-176], the “Fold-Synergistic 1a (Q30E)” value is above 100 fold. For `CC(C)(C)[C@H](NC(=O)C1(CO)CCCCO1)c1nc(-c2ccc(-c3ccc(-c4c[nH]c([C@@H](NC(=O)C5(CO)CCCCO5)C(C)(C)C)n4)cc3)cc2)c[nH]1` (stereo partly drawn) [Compound P-177], the “Fold-Synergistic 1a (Q30E)” value was above 100 fold. Then `CC(C)(C)[C@H](NC(=O)C1(CF)CCCCO1)c1nc(-c2ccc(-c3ccc(-c4c[nH]c([C@@H](NC(=O)C5(CF)CCCCO5)C(C)(C)C)n4)cc3)cc2)c[nH]1` (stereo partly drawn) [Compound P-178], with above 100 fold; and `CC(C)(C)[C@H](NC(=O)C1(C(F)F)CCCCO1)c1nc(-c2ccc(-c3ccc(-c4c[nH]c([C@@H](NC(=O)C5(C(F)F)CCCCO5)C(C)(C)C)n4)cc3)cc2)c[nH]1` (stereo partly drawn) [Compound P-179], with above 100 fold; and `CC(C)(C)[C@H](NC(=O)C1(CO)CCCCO1)c1nc(-c2ccc(-c3ccc(-c4c[nH]c([C@@H](NC(=O)C5(CO)CCCCO5)C(C)(C)C)n4)cc3)cc2)c[nH]1` (stereo partly drawn) [Compound P-180], with above 100 fold. Turning to `CC(C)(C)[C@H](NC(=O)C1(CO)CCCCO1)c1nc(-c2ccc(-c3ccc(-c4c[nH]c([C@@H](NC(=O)C5(CO)CCCCO5)C(C)(C)C)n4)cc3)cc2)c[nH]1` (stereo partly drawn) [Compound P-181], the “Fold-Synergistic 1a (Q30E)” value is given as above 100 fold. Regarding `CC(C)(C)[C@H](NC(=O)C1(CO)CCCCO1)c1nc(-c2ccc(-c3ccc(-c4c[nH]c([C@@H](NC(=O)C5(CO)CCCCO5)C(C)(C)C)n4)cc3)cc2)c[nH]1` (stereo partly drawn) [Compound P-182], the “Fold-Synergistic 1a (Q30E)” value is above 100 fold.
